Our source for the T/C values is PubChem BioAssay AID248 (DTP/NCI, 2004).

This assay concerns L1210 leukemia ip in BDF1 mice, survival T/C. The assay is described as follows: NCI In Vivo Anticancer Drug Screen. Data for tumor model L1210 Leukemia (intraperitoneal) in B6D2F1 (BDF1) mice. As to conditions: endpoint: mean survival time, higher = longer survival. The essentials:
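In this screen, tumor-bearing mice given compound are compared to those given vehicle, and their survival values are reported as a treated-to-control quotient.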

The mark [1] stands for this setting: dose: 100.0 mg/kg/injection, schedule: Q01DX001 (ip), vehicle: carboxymethylcellulose (CMC).
The mark [2] stands for this setting: dose: 200.0 mg/kg/injection, schedule: Q01DX001 (ip), vehicle: carboxymethylcellulose (CMC).
The mark [3] stands for this setting: dose: 400.0 mg/kg/injection, schedule: Q01DX001 (ip), vehicle: carboxymethylcellulose (CMC).
Where [4] appears, read: dose: 100.0 mg/kg/injection, schedule: Q01DX009 (ip), vehicle: Klucel (hydroxypropylcellulose) (HPC).
Setting [5] is: dose: 200.0 mg/kg/injection, schedule: Q01DX009 (ip), vehicle: Klucel (hydroxypropylcellulose) (HPC).
Setting [6] is: dose: 400.0 mg/kg/injection, schedule: Q01DX009 (ip), vehicle: Klucel (hydroxypropylcellulose) (HPC).
[7] abbreviates: dose: 100.0 mg/kg/injection, schedule: Q04DX003 (ip), vehicle: Klucel (hydroxypropylcellulose) (HPC).
The mark [8] stands for this setting: dose: 200.0 mg/kg/injection, schedule: Q04DX003 (ip), vehicle: Klucel (hydroxypropylcellulose) (HPC).
The mark [9] stands for this setting: dose: 400.0 mg/kg/injection, schedule: Q04DX003 (ip), vehicle: Klucel (hydroxypropylcellulose) (HPC).
Where [10] appears, read: dose: 100.0 mg/kg/injection, schedule: Q01DX009 (ip), vehicle: saline with Tween-80.
Setting [11] is: dose: 200.0 mg/kg/injection, schedule: Q01DX009 (ip), vehicle: saline with Tween-80.
Where [12] appears, read: dose: 400.0 mg/kg/injection, schedule: Q01DX009 (ip), vehicle: saline with Tween-80.
Where [13] appears, read: dose: 100.0 mg/kg/injection, schedule: Q01DX001 (ip), vehicle: saline.
The mark [14] stands for this setting: dose: 100.0 mg/kg/injection, schedule: Q04DX003 (ip), vehicle: saline.

Molecules are shown by their SMILES. Several values for one entry are separate records, joined by “and”; a condition that tells them apart may be missing. Equal values may be shown once. Toxic doses and inconclusive results are not listed.

As for `CC(C)=CCC(C#N)(CCN1CCCC1)c1cccc2ccccc12` (stereo unspecified), the T/C (dose: 12.5 mg/kg/injection, schedule: Q01DX009 (ip), vehicle: Klucel (hydroxypropylcellulose) (HPC)) is 100 % of control; the T/C (dose: 25.0 mg/kg/injection, schedule: Q01DX009 (ip), vehicle: Klucel (hydroxypropylcellulose) (HPC)) was 118 % of control; the T/C (dose: 50.0 mg/kg/injection, schedule: Q01DX009 (ip), vehicle: Klucel (hydroxypropylcellulose) (HPC)) was 105 % of control.
Turning to `CCOC(=O)c1c(-c2cc(OC)c(OC)c(OC)c2)csc1N`, the T/C by setting is: (dose: 50.0 mg/kg/injection, schedule: Q04DX003 (ip), vehicle: saline with Tween-80) 95 % of control; (dose: 100.0 mg/kg/injection, schedule: Q04DX003 (ip), vehicle: saline with Tween-80) 97 % of control; (dose: 200.0 mg/kg/injection, schedule: Q04DX003 (ip), vehicle: saline with Tween-80) 87 % of control; (dose: 400.0 mg/kg/injection, schedule: Q04DX003 (ip), vehicle: saline with Tween-80) 94 % of control.
Take `CCCCCCOc1ccc(C2=C(c3ccccc3)C(=O)C(c3ccccc3)=C2c2ccccc2)cc1`: the T/C is, setting by setting: under setting [1], 100 % of control; under setting [2], 97 % of control; under setting [3], 100 % of control.
On to `Cc1ccccc1NC(=S)N1CCOCC1`, for which the T/C under setting [4] was 105 % of control, the T/C under setting [5] is 108 % of control and the T/C under setting [6] is 111 % of control.
On to `CN=C(N)c1ccc(NC(=O)Nc2ccc(NC(=O)Nc3ccc(C(N)=NC)cc3)cc2)cc1`, for which the T/C is, setting by setting: (dose: 50.0 mg/kg/injection, schedule: Q01DX Z (oral), vehicle: saline) 95 % of control; (dose: 60.0 mg/kg/injection, schedule: Q01DX Z (ip), vehicle: saline) 157 % of control; (dose: 100.0 mg/kg/injection, schedule: Q01DX Z (oral), vehicle: saline) 89 % of control; (dose: 120.0 mg/kg/injection, schedule: Q01DX Z (ip), vehicle: saline) 205 % of control; (dose: 200.0 mg/kg/injection, schedule: Q01DX Z (oral), vehicle: saline) 95 % of control; (dose: 240.0 mg/kg/injection, schedule: Q01DX Z (ip), vehicle: saline) 108 % of control. Moreover, the T/C (dose: 400.0 mg/kg/injection, schedule: Q01DX Z (oral), vehicle: saline) is 96 % of control and the T/C (dose: 480.0 mg/kg/injection, schedule: Q01DX Z (ip), vehicle: saline) was 90 % of control.
Consider `O=C1c2ccccc2C(=O)C1(Br)C(Cl)c1ccccc1` (stereo unspecified), for which the T/C is 95 % of control under setting [4]; 96 % of control under setting [7]; 101 % of control under setting [5]; 103 % of control under setting [8]; 97 % of control under setting [6]; 97 % of control under setting [9].
In the case of `O=S1(=O)N2CN3CN(C2)CN1C3`, the T/C (dose: 100.0 mg/kg/injection, schedule: Q01DX001 (ip), vehicle: Klucel (hydroxypropylcellulose) (HPC)) is 94 % of control; the T/C under setting [4] was 97 % of control; the T/C (dose: 200.0 mg/kg/injection, schedule: Q01DX001 (ip), vehicle: Klucel (hydroxypropylcellulose) (HPC)) is 102 % of control; the T/C under setting [5] is 100 % of control; the T/C (dose: 400.0 mg/kg/injection, schedule: Q01DX001 (ip), vehicle: Klucel (hydroxypropylcellulose) (HPC)) is 104 % of control.
In the case of `Cc1ccc(C)c(NC(=O)NCCN(C)c2ccccc2)c1`, the T/C runs as follows: (dose: 100.0 mg/kg/injection, schedule: Q01DX001 (ip), vehicle: saline with Tween-80) 96 % of control; under setting [10], 87 % of control; (dose: 100.0 mg/kg/injection, schedule: Q04DX002 (ip), vehicle: saline with Tween-80) 89 % of control and 91 % of control; (dose: 200.0 mg/kg/injection, schedule: Q01DX001 (ip), vehicle: saline with Tween-80) 93 % of control; under setting [11], 89 % of control; (dose: 200.0 mg/kg/injection, schedule: Q04DX002 (ip), vehicle: saline with Tween-80) 89 % of control and 91 % of control. The T/C was 92 % of control (dose: 400.0 mg/kg/injection, schedule: Q01DX001 (ip), vehicle: saline with Tween-80); 101 % of control under setting [12]; 89 % of control and 91 % of control (dose: 400.0 mg/kg/injection, schedule: Q04DX002 (ip), vehicle: saline with Tween-80).
With `O=C(CCCCl)N1CCCCC1`, the T/C is 94 % of control (dose: 100.0 mg/kg/injection, schedule: Q04DX002 (ip), vehicle: saline); 98 % of control (dose: 200.0 mg/kg/injection, schedule: Q04DX002 (ip), vehicle: saline); 96 % of control (dose: 400.0 mg/kg/injection, schedule: Q04DX002 (ip), vehicle: saline).
With `Cc1ccc([N+](=O)[O-])cc1O`, the T/C (dose: 25.0 mg/kg/injection, schedule: Q04DX003 (ip), vehicle: saline) was 98 % of control; the T/C (dose: 50.0 mg/kg/injection, schedule: Q04DX003 (ip), vehicle: saline) was 102 % of control; the T/C under setting [13] was 97 % of control; the T/C under setting [14] is 97 % of control.
Regarding `Oc1ccccc1N=Cc1c(O)ccc2ccccc12`, the T/C runs as follows: (dose: 100.0 mg/kg/injection, schedule: Q01DX001 (ip), vehicle: other) 96 % of control; (dose: 200.0 mg/kg/injection, schedule: Q01DX001 (ip), vehicle: other) 98 % of control; (dose: 400.0 mg/kg/injection, schedule: Q01DX001 (ip), vehicle: other) 101 % of control.
As for `CCOC(=O)C(C(=O)OCC)C(=O)OCC`, the T/C runs as follows: under setting [13], 102 % of control; (dose: 200.0 mg/kg/injection, schedule: Q01DX001 (ip), vehicle: saline) 102 % of control; (dose: 400.0 mg/kg/injection, schedule: Q01DX001 (ip), vehicle: saline) 105 % of control.
Take `COc1c2ccoc2nc2ccc3c(c12)C=CC(C)(C)O3`: the T/C reads like this: (dose: 50.0 mg/kg/injection, schedule: Q01DX001 (ip), vehicle: carboxymethylcellulose (CMC)) 98 % of control; under setting [1], 104 % of control; under setting [2], 104 % of control; under setting [3], 98 % of control.
`Nc1ncccn1`: the T/C is 101 % of control under setting [7], 93 % of control under setting [8] and 101 % of control under setting [9].
Take `OC12C3CCCC1CCCC2CCC3` (stereo unspecified): the T/C is 101 % of control (dose: 100.0 mg/kg/injection, schedule: Q01DX009 (ip), vehicle: other); 103 % of control (dose: 100.0 mg/kg/injection, schedule: Q01DX009 (ip), vehicle: saline sonified); 110 % of control and 90 % of control under setting [10]; 95 % of control and 106 % of control and 96 % of control under setting [7]; 102 % of control under setting [14]; 94 % of control (dose: 200.0 mg/kg/injection, schedule: Q01DX009 (ip), vehicle: other). For the same compound, the T/C is 103 % of control (dose: 200.0 mg/kg/injection, schedule: Q01DX009 (ip), vehicle: saline sonified); 106 % of control and 89 % of control under setting [11]; 108 % of control and 100 % of control and 96 % of control under setting [8]; 102 % of control (dose: 200.0 mg/kg/injection, schedule: Q04DX003 (ip), vehicle: saline); 92 % of control (dose: 400.0 mg/kg/injection, schedule: Q01DX009 (ip), vehicle: other); 92 % of control (dose: 400.0 mg/kg/injection, schedule: Q01DX009 (ip), vehicle: saline sonified). In addition, the T/C under setting [12] is 95 % of control and 92 % of control; the T/C under setting [9] was 95 % of control and 104 % of control and 114 % of control; the T/C (dose: 400.0 mg/kg/injection, schedule: Q04DX003 (ip), vehicle: saline) was 104 % of control.
With `CC(=O)OC1C(C)OC(OC2C=C3CCC4C(CCC5(C)C(c6ccc(=O)oc6)CCC45O)C3(C)CC2)C(OC(C)=O)C1OC(C)=O` (stereo unspecified), the T/C by setting is: (dose: 6.25 mg/kg/injection, schedule: Q01DX009 (ip), vehicle: saline with Tween-80) 102 % of control; (dose: 12.5 mg/kg/injection, schedule: Q01DX009 (ip), vehicle: saline with Tween-80) 100 % of control; (dose: 12.5 mg/kg/injection, schedule: Q04DX003 (ip), vehicle: saline with Tween-80) 105 % of control; (dose: 25.0 mg/kg/injection, schedule: Q01DX009 (ip), vehicle: saline with Tween-80) 103 % of control; (dose: 25.0 mg/kg/injection, schedule: Q04DX003 (ip), vehicle: saline with Tween-80) 105 % of control.
